Assay results published in patent publication US7064124B2, “NF-κB inhibitor containing substituted benzoic acid derivative as active ingredient” (Daiichi Suntory Pharma Co., Ltd., priority 2001, dated 2006).
In brackets after ≈: the same amount, converted by molar mass.

How the values were obtained:
NF-κB = NF-κB luciferase reporter assay in A549/NF-κBLuc cells stimulated with IL-1β; assay type: cell-based, human; settings: Homo sapiens, A549, A549/NF-κBLuc cells; compound added 1 hour before IL-1β, then 3 hours incubation; luciferase activity; read-out: NF-κB Inhibitory Activity (IC50)
Method: Effect on Human Lung Cancer-Derived Cell A549 (A549/NF-κBluc) Containing Stably Introduced Luciferase Plasmid (pNFκB-Luc, Stratagene. U.S.A.) Regulated by NF-κB Binding Sequence
Using Lipofectamine (Lifetech Oriental, Tokyo), pNFκB-Luc and pSV2neo (Clontech, U.S.A.) were co-transfected into the A549 cell (ATCC CCL185) and G418 sulfate (1 mg/ml, Lifetech Oriental) was added to the culture medium to select cells containing stably introduced pNFκB-Luc A549/NF-κBLuc.
The compound obtained in Examples each was added to A549/NF-κBLuc and one hour after that, IL-1β capable of activating NF-κB was added. The incubation was further continued for 3 hours.
NF-κB Inhibitory Activity (IC50) of Substituted Benzoic Acid Derivitives: […]

SMILES	IC50 (NF-κB) [µg/mL]	melting point [°C]
COC1=C(OC)C(=O)C(Cc2ccc(OC(C)=O)c(C(=O)Nc3ccc(S(=O)(=O)C(F)(F)F)cc3)c2)=C(C)C1=O [Example 173, N-[5-(5,6-Dimethoxy-3-methyl-1,4-benzoquinon-2-yl)methyl-2-acetoxybenzoyl]-4-(trifluoromethylsulfonyl)aniline]	9 (≈ 15.5 µM)	84.5 to 87
COC1=C(OC)C(=O)C(Cc2ccc(OC(C)=O)c(C(=O)Nc3ccc(C(=O)OC(C)(C)C)cc3)c2)=C(C)C1=O [Example 188, tert-Butyl N-[5-(5,6-dimethoxy-3-methyl-1,4-benzoquinon-2-yl)methyl-2-acetoxybenzoyl]-4-aminobenzoate]	9 (≈ 16.4 µM)	78.5 to 81
CC1=C(C)C(=O)C(Cc2ccc(O)c(C(=O)Nc3ccc(C(F)(F)F)cc3)c2)=C(C)C1=O [Example 235, N-[5-(3,5,6-Trimethyl-1,4-benzoquinon-2-yl)methyl-2-hydroxybenzoyl]-4-trifluoromethylaniline]	5 (≈ 11.3 µM)	233 to 235
COC1=C(OC)C(=O)C(Cc2ccc(OC(C)=O)c(C(=O)Nc3cccnc3Cl)c2)=C(C)C1=O [Example 186, N-(2-Chloropyridin-3-yl)-5-(5,6-dimethoxy-3-methyl-1,4-benzoquinon-2-yl)methyl-2-acetoxybenzamide]	2 (≈ 4.12 µM)	128.5 to 130
CC1=C(C)C(=O)C(Cc2ccc(O)c(C(=O)Nc3cccnc3Cl)c2)=C(C)C1=O [Example 237]	5 (≈ 12.2 µM)	199 to 201
COC1=C(OC)C(=O)C(Cc2ccc(OC(C)=O)c(C(=O)Nc3ccc(Cl)nc3)c2)=C(C)C1=O [Example 184, N-(6-Chloropyridin-3-yl)-5-(5,6-dimethoxy-3-methyl-1,4-benzoquinon-2-yl)methyl-2-acetoxybenzamide]	56 (≈ 115 µM)	74.5 to 77.5
COC1=C(OC)C(=O)C(Cc2ccc(O)c(C(=O)Nc3ccc(NC(=O)OC(C)(C)C)cc3)c2)=C(C)C1=O [Example 200, N-[5-(5,6-Dimethoxy-3-methyl-1,4-benzoquinon-2-yl)methyl-2-hydroxybenzoyl]-4-(tert-butoxycarbonyl)aminoaniline]	17 (≈ 32.5 µM)	127 to 129
CCOC(=O)c1ccc(NC(=O)c2cc(CC3=C(C)C(=O)C(OC)=C(OC)C3=O)ccc2O)cc1 [Example 148]	3 (≈ 6.26 µM)	176 to 179
CCOC(=O)c1ccc(NC(=O)c2cc(CC3=C(C)C(=O)C(OC)=C(OC)C3=O)ccc2OC(C)=O)cc1 [Example 147, Ethyl N-[5-(5,6-dimethoxy-3-methyl-1,4-benzoquinon-2-yl)methyl-2-acetoxybenzoyl]-4-aminobenzoate]	19 (≈ 36.4 µM)	154 to 156.5
COC1=C(OC)C(=O)C(Cc2ccc(C(=O)Nc3cccnc3Cl)c(OC(C)=O)c2)=C(C)C1=O [Example 132, N-(2-Chloropyridin-3-yl)-4-(5,6-dimethoxy-3-methyl-1,4-benzoquinon-2-yl)methyl-2-acetoxybenzamide]	–	113.5 to 115.1
COC1=C(OC)C(=O)C(Cc2cccc(C(=O)Nc3ccc(N4CCOCC4)cc3)c2OC(C)=O)=C(C)C1=O [Example 178, N-[3-(5,6-Dimethoxy-3-methyl-1,4-benzoquinon-2-yl)methyl-2-acetoxybenzoyl]-4-morpholinoaniline]	–	168 to 171
COC1=C(OC)C(=O)C(Cc2ccc(OC(C)=O)c(C(=O)Nc3ccc(C(=O)O)cn3)c2)=C(C)C1=O [Example 197, N-(5-Hydroxycarbonylpyridin-2-yl)-5-(5,6-dimethoxy-3-methyl-1,4-benzoquinon-2-yl)methyl-2-acetoxybenzamide]	–	123 to 125
COC1=C(OC)C(=O)C(Cc2ccc(OC(C)=O)c(C(=O)Nc3ccc(F)cc3)c2)=C(C)C1=O [Example 141, N-[5-(5,6-Dimethoxy-3-methyl-1,4-benzoquinon-2-yl)methyl-2-acetoxybenzoyl]-4-fluoroaniline]	–	128.5 to 130.5

The next lines start with the values.

IC50 (NF-κB) [µg/mL]	melting point [°C]	SMILES
4 (≈ 8.84 µM)	213.5 to 215.5	COC1=C(OC)C(=O)C(Cc2ccc(O)c(C(=O)Nc3ccc([N+](=O)[O-])cc3)c2)=C(C)C1=O [Example 191, N-[5-(5,6-Dimethoxy-3-methyl-1,4-benzoquinon-2-yl)methyl-2-hydroxybenzoyl]-4-nitroaniline]
4 (≈ 8.96 µM)	164.5 to 166	COC1=C(OC)C(=O)C(Cc2ccc(O)c(C(=O)Nc3ccc(CC#N)cc3)c2)=C(C)C1=O [Example 150, N-[5-(5,6-Dimethoxy-3-methyl-1,4-benzoquinon-2-yl)methyl-2-hydroxybenzoyl]-4-cyanomethylaniline]
23 (≈ 47.9 µM)	104.5 to 107.5	COC1=C(OC)C(=O)C(Cc2ccc(OC(C)=O)c(C(=O)Nc3ccc(OC)nc3)c2)=C(C)C1=O [Example 180]
6 (≈ 11.1 µM)	223 to 225.5	COC1=C(OC)C(=O)C(Cc2ccc(O)c(C(=O)Nc3ccc(S(=O)(=O)C(F)(F)F)cc3)c2)=C(C)C1=O [Example 174, N-[5-(5,6-Dimethoxy-3-methyl-1,4-benzoquinon-2-yl)methyl-2-hydroxybenzoyl]-4-(trifluoromethylsulfonyl)aniline]
30	199.5 to 201.5	COC1=C(OC)C(=O)C(Cc2ccc(O)c(C(=O)Nc3ccncc3)c2)=C(C)C1=O.CS(=O)(=O)O [Example 203, N-(Pyridin-4-yl)-5-(5,6-dimethoxy-3-methyl-1,4-benzoquinon-2-yl)methyl-2-hydroxybenzamide (methanesulfonate)]
20	149.5 to 152	COC1=C(OC)C(=O)C(Cc2ccc(O)c(C(=O)Nc3cccnc3)c2)=C(C)C1=O.CS(=O)(=O)O [Example 202, N-(Pyridin-3-yl)-5-(5,6-dimethoxy-3-methyl-1,4-benzoquinon-2-yl)methyl-2-hydroxybenzamide (methanesulfonate)]
11 (≈ 24.8 µM)	166 to 169	COC1=C(OC)C(=O)C(Cc2ccc(O)c(C(=O)Nc3ccc(Cl)nc3)c2)=C(C)C1=O [Example 185, N-(6-Chloropyridin-3-yl)-5-(5,6-dimethoxy-3-methyl-1,4-benzoquinon-2-yl)methyl-2-hydroxybenzamide]
24 (≈ 48.6 µM)	102.5 to 105	COC1=C(OC)C(=O)C(Cc2ccc(O)c(C(=O)Nc3ccc(N4CCOCC4)nc3)c2)=C(C)C1=O [Example 225, N-(6-Morpholinopyridin-3-yl)-5-(5,6-dimethoxy-3-methyl-1,4-benzoquinon-2-yl)methyl-2-hydroxybenzamide]
2 (≈ 4.52 µM)	152 to 154	COC1=C(OC)C(=O)C(Cc2ccc(O)c(C(=O)Nc3cccnc3Cl)c2)=C(C)C1=O [Example 187, N-(2-Chloropyridin-3-yl)-5-(5,6-dimethoxy-3-methyl-1,4-benzoquinon-2-yl)methyl-2-hydroxybenzamide]
–	200.2 to 201.9	COC1=C(OC)C(=O)C(Cc2ccc(C(=O)Nc3ccc(Cl)nc3)c(O)c2)=C(C)C1=O [Example 131, N-(6-Chloropyridin-3-yl)-4-(5,6-dimethoxy-3-methyl-1,4-benzoquinon-2-yl)methyl-2-hydroxybenzamide]
–	238 to 241	COC1=C(OC)C(=O)C(Cc2ccc(O)c(C(=O)Nc3ccc(C(=O)O)cn3)c2)=C(C)C1=O [Example 198, N-(5-Hydroxycarbonylpyridin-2-yl)-5-(5,6-dimethoxy-3-methyl-1,4-benzoquinon-2-yl)methyl-2-hydroxybenzamide]
–	116 to 119	COC1=C(OC)C(=O)C(Cc2ccc(OCc3cccnc3)c(C(=O)Nc3ccncc3)c2)=C(C)C1=O [Example 168, N-(Pyridin-4-yl)-5-(5,6-dimethoxy-3-methyl-1,4-benzoquinon-2-yl)methyl-2-(3-pyridylmethyloxy)benzamide]
–	153 to 154	COC1=C(OC)C(=O)C(Cc2ccc(O)c(C(=O)Nc3cccc([N+](=O)[O-])c3)c2)=C(C)C1=O [Example 144, N-[5-(5,6-Dimethoxy-3-methyl-1,4-benzoquinon-2-yl)methyl-2-hydroxybenzoyl]-3-nitroaniline]
–	119 to 121.5	COC1=C(OC)C(=O)C(Cc2ccc(O)c(C(=O)Nc3ccc(OC)nc3OC)c2)=C(C)C1=O [Example 183, N-(2,6-Dimethoxypyridin-3-yl)-5-(5,6-dimethoxy-3-methyl-1,4-benzoquinon-2-yl)methyl-2-hydroxybenzamide]
–	257 to 260	COC1=C(OC)C(=O)C(Cc2ccc(O)c(C(=O)Nc3ccc(C(=O)O)cc3)c2)=C(C)C1=O [Example 190, N-[5-(5,6-Dimethoxy-3-methyl-1,4-benzoquinon-2-yl)methyl-2-hydroxybenzoyl]-4-aminobenzoic acid]
–	87 to 89.5	COC1=C(OC)C(=O)C(Cc2ccc(OCc3cccnc3)c(C(=O)NC3CC3)c2)=C(C)C1=O [Example 170, N-Cyclopropyl-5-(5,6-dimethoxy-3-methyl-1,4-benzoquinon-2-yl)methyl-2-(3-pyridylmethyloxy)benzamide]
–	147 to 150	COC1=C(OC)C(=O)C(Cc2cccc(C(=O)Nc3ccc(Cl)cc3Cl)c2O)=C(C)C1=O [Example 177, N-[3-(5,6-Dimethoxy-3-methyl-1,4-benzoquinon-2-yl)methyl-2-hydroxybenzoyl]-2,4-dichloroaniline]
